# Reference: patent publication US9409905B2, “Antibacterial compounds and methods for use” (PTC THERAPEUTICS, INC., priority 2011, dated 2016)
# Columns and labels:
# A. baumannii MXX2240 = experiment: Antibacterial activity, MIC, resistant strain (Table 4); format: cell-based; details: Acinetobacter baumannii, MXX2240; resistant A. baumannii MMX2240, multi-drug resistant clinical isolate; read-out: MIC, MMX2240
# Excerpt: (§1) The antibacterial activity from a microbroth dilution method may be presented as the minimum inhibitory concentration (MIC in μg/mL). The MIC value is the lowest concentration of drug which prevents macroscopically visible growth under test conditions.
# (§2) Antibacterial activity of test compounds against the Gram-negative Acinetobacter baumannii (A. baumannii) BAA747 and Klebsiella pneumoniae (K. pneumoniae) 35657 bacterium and the resistant A. baumannii MXX2240 and K. pneumoniae MXX1232 strains are shown in Table 4. The MMX strains are multi-drug resistant clinical isolates.
# K. pneumoniae MXX1232 = experiment: as above; format: cell-based; details: Klebsiella pneumoniae, MXX1232; resistant K. pneumoniae MMX1232, multi-drug resistant clinical isolate; read-out: MIC, MMX1232
# Excerpt: as §1, §2
# [1] = test system: Pseudomonas aeruginosa (P. aeruginosa) 27853; experiment: Antibacterial activity, MIC (Table 5); format: cell-based; details: P. aeruginosa 27853, read-out: MIC, 27853
# Excerpt: as §1
# Antibacterial activity of test compounds against the Gram-negative bacterium Pseudomonas aeruginosa (P. aeruginosa) 27853 is shown in Table 5.
# E. coli LZ3111 = experiment: Antibacterial activity, MIC, quinolone resistant strain (Table 2); format: cell-based; details: Escherichia coli, LZ3111, read-out: MIC LZ3111
# Procedure, shortened: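 Strain carries mutations conferring high-level quinolone resistance; tested by microbroth dilution, MIC recorded in μg/mL as lowest concentration preventing visible growth.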
# [2] = test system: Klebsiella pneumoniae (K. pneumoniae) 35657; experiment: Antibacterial activity, MIC (Table 4); format: cell-based; details: K. pneumoniae 35657, read-out: MIC, 35657
# Excerpt: as §1, §2
# [3] = test system: Acinetobacter baumannii (A. baumannii) BAA747; experiment: Antibacterial activity, MIC (Table 4); format: cell-based; details: A. baumannii BAA747, read-out: MIC, BAA747
# Excerpt: as §1, §2
# E. coli 25922 = experiment: Antibacterial activity, microbroth dilution MIC (Table 1); format: cell-based, Escherichia coli; details: Escherichia coli; microbroth dilution; control Gram-negative E. coli 25922 strain; read-out: MIC, 25922
# Procedure, shortened: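 Broth microdilution against S. aureus 29213, E. coli 25922 and hypersensitive E. coli BAS849. MIC in μg/mL is the lowest drug concentration preventing macroscopically visible growth under test conditions.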
# [4] = test system: Escherichia coli (E. coli) BAS849; experiment: as above; format: cell-based; details: microbroth dilution, super sensitive Gram-negative E. coli BAS849, read-out: MIC, BAS849
# Procedure, shortened: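 Potency is reported as minimum inhibitory concentration in μg/mL, determined by broth microdilution as the lowest level of compound that stops growth visible to the eye.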
# [5] = test system: Staphylococcus aureus (S. aureus) 29213; experiment: as above; format: cell-based; details: microbroth dilution, Gram-positive S. aureus 29213, read-out: MIC, 29213
# Procedure, shortened: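 Using broth microdilution, MIC endpoints (μg/mL) mark where visible growth no longer appears; the panel spans sensitive and control Gram-negative strains plus a Gram-positive strain.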
SMILES,MIC (A. baumannii MXX2240),MIC (K. pneumoniae MXX1232),MIC [1],MIC (E. coli LZ3111),MIC [2],MIC [3],MIC (E. coli 25922),MIC [4],MIC [5]
"CCc1cc(C(=O)O)c(=O)[nH]c1-c1ccc2c(c1)cc(CN(CC)CC)n2C [Cpd 123, 6-(2-((diethylamino)methyl)-1-methyl-1H-indol-5-yl)-5-ethyl-2-oxo-1,2-dihydropyridine-3-carboxylic acid]",12.5 to 150 mg/L,12.5 to 150 mg/L,12.5 to 150 mg/L,12.5 to 150 mg/L,< 1 mg/L,1 to 3.5 mg/L,< 1 mg/L,< 1 mg/L,12.5 to 150 mg/L
"CCc1cc(C(=O)O)c(=O)[nH]c1-c1ccc2c(c1)cc(CN1CCOCC1)n2C [Cpd 137, 5-ethyl-6-(1-methyl-2-(morpholinomethyl)-1H-indol-5-yl)-2-oxo-1,2-dihydropyridine-3-carboxylic acid]",12.5 to 150 mg/L,12.5 to 150 mg/L,12.5 to 150 mg/L,12.5 to 150 mg/L,1 to 3.5 mg/L,3.5 to 12.5 mg/L,1 to 3.5 mg/L,< 1 mg/L,12.5 to 150 mg/L
"CCc1cc(C(=O)O)c(=O)[nH]c1-c1ccc2c(c1)cc(CN1CCN(C)CC1)n2C [Cpd 140, 5-ethyl-6-(1-methyl-2-((4-methylpiperazin-1-yl)methyl)-1H-indol-5-yl)-2-oxo-1,2-dihydropyridine-3-carboxylic acid]",12.5 to 150 mg/L,12.5 to 150 mg/L,12.5 to 150 mg/L,12.5 to 150 mg/L,1 to 3.5 mg/L,3.5 to 12.5 mg/L,1 to 3.5 mg/L,< 1 mg/L,12.5 to 150 mg/L
"CCc1cc(C(=O)O)c(=O)[nH]c1-c1ccc2c(c1)cc1n2CCC1N1CCCCC1 (stereo not drawn) [Cpd 154, 5-ethyl-2-oxo-6-(1-(piperidin-1-yl)-2,3-dihydro-1H-pyrrolo[1,2-a]indol-7-yl)-1,2-dihydropyridine-3-carboxylic acid]",12.5 to 150 mg/L,12.5 to 150 mg/L,12.5 to 150 mg/L,12.5 to 150 mg/L,1 to 3.5 mg/L,3.5 to 12.5 mg/L,1 to 3.5 mg/L,< 1 mg/L,12.5 to 150 mg/L
"CC(C)c1c(-c2ccc3c(c2)cc(CN(C)C)n3C)[nH]c(=O)c(C(=O)O)c1O [Cpd 318, 6-(2-((dimethylamino)methyl)-1-methyl-1H-indol-5-yl)-4-hydroxy-5-isopropyl-2-oxo-1,2-dihydropyridine-3-carboxylic acid]",12.5 to 150 mg/L,12.5 to 150 mg/L,12.5 to 150 mg/L,12.5 to 150 mg/L,3.5 to 12.5 mg/L,12.5 to 150 mg/L,1 to 3.5 mg/L,< 1 mg/L,12.5 to 150 mg/L
"CN(C)Cc1cc2cc(-c3[nH]c(=O)c(C(=O)O)c(O)c3C3CC3)ccc2n1C [Cpd 322, 5-cyclopropyl-6-(2-((dimethylamino)methyl)-1-methyl-1H-indol-5-yl)-4-hydroxy-2-oxo-1,2-dihydropyridine-3-carboxylic acid]",12.5 to 150 mg/L,12.5 to 150 mg/L,12.5 to 150 mg/L,12.5 to 150 mg/L,12.5 to 150 mg/L,12.5 to 150 mg/L,12.5 to 150 mg/L,1 to 3.5 mg/L,12.5 to 150 mg/L
"C=CCc1c(-c2ccc3c(c2)cc(CN(C)C)n3C)[nH]c(=O)c(C(=O)O)c1O [Cpd 339, 5-allyl-6-(2-((dimethylamino)methyl)-1-methyl-1H-indol-5-yl)-4-hydroxy-2-oxo-1,2-dihydropyridine-3-carboxylic acid]",3.5 to 12.5 mg/L,12.5 to 150 mg/L,12.5 to 150 mg/L,3.5 to 12.5 mg/L,1 to 3.5 mg/L,3.5 to 12.5 mg/L,< 1 mg/L,< 1 mg/L,3.5 to 12.5 mg/L
"CCCc1c(-c2ccc3c(c2)cc(CN(C)C)n3C)[nH]c(=O)c(C(=O)O)c1O [Cpd 340, 6-(2-((dimethylamino)methyl)-1-methyl-1H-indol-5-yl)-4-hydroxy-2-oxo-5-propyl-1,2-dihydropyridine-3-carboxylic acid]",3.5 to 12.5 mg/L,12.5 to 150 mg/L,12.5 to 150 mg/L,3.5 to 12.5 mg/L,3.5 to 12.5 mg/L,12.5 to 150 mg/L,3.5 to 12.5 mg/L,< 1 mg/L,12.5 to 150 mg/L
